The experiment is filed under the species Oryctolagus cuniculus. Briefly: Inhibitory concentration of compound against antigen binding site in immunized rabbits. It counts as functional, organism-based.

Among the data in ChEMBL document CHEMBL1148228, “Synthesis of N tau-arylhistidine derivatives via direct N-arylation” (Bioorg Med Chem Lett, 2004) are IC50 values, retold here.

As usually defined, the IC50 is the concentration needed to halve the response being measured. The low end stands for greater potency, the high end for weaker potency. Turning to `CC(=O)NC(Cc1cn(-c2ccc(Br)cc2)cn1)C(=O)O` (stereo unspecified), the IC50 was approximately 1 µM.
